Laboratory results as given in ChEMBL document CHEMBL3992552, “Mechanisms of action and structure-activity relationships of cytotoxic flavokawain derivatives” (Bioorg Med Chem, 2017).
Active and inactive are the calls of the source. The calls are words filed in the database; no cut-off is given here.

Key:
Huh-7 [1] = assay: Cytotoxicity against human HuH7 cells assessed as cell survival at 50 uM after 48 hrs by Hoechst 33342 staining based assay relative to control; format: functional; settings: Huh-7, 48 h, read-out: Survival
MDA-MB-231 [2] = assay: Cytotoxicity against human MDA-MB-231 cells assessed as cell survival at 50 uM after 48 hrs by Hoechst 33342 staining based assay relative to control; format: functional; settings: MDA-MB-231, 48 h, read-out: Survival
HCT-116 [3] = assay: Cytotoxicity against human HCT116 cells assessed as cell survival at 50 uM after 48 hrs by Hoechst 33342 staining based assay relative to control; format: functional; settings: HCT-116, 48 h, read-out: Survival
PC-3 [4] = assay: Cytotoxicity against human PC3 cells assessed as cell survival at 50 uM after 48 hrs by Hoechst 33342 staining based assay relative to control; format: functional; settings: PC-3, 48 h, read-out: Survival
HaCaT [5] = assay: Cytotoxicity against human HaCaT cells assessed as cell survival at 50 uM after 48 hrs by Hoechst 33342 staining based assay relative to control; format: functional; settings: read-out: Survival
[6] = Cytotoxicity against human fibroblasts assessed as cell survival at 50 uM after 48 hrs by Hoechst 33342 staining based assay relative to control; design: species or system Fibroblast; settings: read-out: Survival
Huh-7 [7] = assay: Cytotoxicity against human HuH7 cells assessed as cell viability after 48 hrs by Hoechst 33342 staining based assay; format: functional; settings: Huh-7, 48 h
Caco-2 [8] = assay: Cytotoxicity against human Caco2 cells assessed as cell viability after 48 hrs by Hoechst 33342 staining based assay; format: functional; settings: Caco-2, 48 h
MDA-MB-231 [9] = assay: Cytotoxicity against human MDA-MB-231 cells assessed as cell viability after 48 hrs by Hoechst 33342 staining based assay; format: functional; settings: MDA-MB-231, 48 h
PC-3 [10] = assay: Cytotoxicity against human PC3 cells assessed as cell viability after 48 hrs by Hoechst 33342 staining based assay; format: functional; settings: PC-3, 48 h
HaCaT [11] = assay: Cytotoxicity against human HaCaT cells assessed as cell viability after 48 hrs by Hoechst 33342 staining based assay; format: functional
MCF7 [12] = assay: Cytotoxicity against human MCF7 assessed as cell viability after 48 hrs by Hoechst 33342 staining based assay; format: functional; settings: MCF7, 48 h
[13] = Selectivity index, ratio of IC50 for human fibroblasts to IC50 for human HCT116 cells
[14] = Selectivity index, ratio of IC50 for human fibroblasts to IC50 for human PC3 cells
PC-3 [15] = assay: Induction of apoptosis in human PC3 cells harboring p53 mutant assessed as increase in early apoptosis at 2 times IC50 after 48 hrs by YoPro/propidium iodide/Hoechst staining based assay; format: functional, cell-based
MDA-MB-231 [16] = assay: Induction of apoptosis in human MDA-MB-231 cells harboring p53 mutant assessed as increase in late apoptosis at 2 times IC50 after 24 hrs by YoPro/propidium iodide/Hoechst staining based assay; format: functional, cell-based
MCF7 [17] = assay: Induction of apoptosis in human MCF7 cells harboring wild-type p53 assessed as increase in early apoptosis at 2 times IC50 after 24 hrs by YoPro/propidium iodide/Hoechst staining based assay; format: functional, cell-based
MCF7 [18] = assay: Induction of apoptosis in human MCF7 cells harboring wild-type p53 assessed as increase in late apoptosis at 2 times IC50 after 24 hrs by YoPro/propidium iodide/Hoechst staining based assay; format: functional, cell-based
HCT-116 [19] = assay: Induction of apoptosis in human HCT116 cells harboring wild-type p53 assessed as increase in cleaved caspase3 at 2 times IC50 after 48 hrs by Hoechst staining based assay; format: functional, cell-based
Huh-7 [20] = assay: Cell cycle arrest in human HuH7 cells assessed as mitotic index at 10 uM measured after 48 hrs by Hoechst staining based fluorescence assay (reference value: 2.2); format: functional
Huh-7 [21] = assay: Cell cycle arrest in human HuH7 cells assessed as accumulation at S phase at 10 uM measured after 48 hrs by Hoechst/BrdU staining based fluorescence assay (reference value: 44%); format: functional
Caco-2 [22] = assay: Cell cycle arrest in human Caco2 cells assessed as mitotic index at 10 uM measured after 48 hrs by Hoechst staining based fluorescence assay (reference value: 3.6); format: functional
Caco-2 [23] = assay: Cell cycle arrest in human Caco2 cells assessed as accumulation at S phase at 10 uM measured after 48 hrs by Hoechst/BrdU staining based fluorescence assay (reference value: […]); format: functional
HCT-116 [24] = assay: Cell cycle arrest in human HCT116 cells harboring wild-type p53 assessed as mitotic index at 10 uM measured after 48 hrs by Hoechst staining based fluorescence assay (reference value: 2.3); format: functional
HCT-116 [25] = assay: Cell cycle arrest in human HCT116 cells harboring wild-type p53 assessed as accumulation at S phase at 10 uM measured after 48 hrs by Hoechst/BrdU staining based fluorescence assay (reference value: 68.4%); format: functional
PC-3 [26] = assay: Cell cycle arrest in human PC3 cells harboring p53 mutant assessed as mitotic index at 10 uM measured after 48 hrs by Hoechst staining based fluorescence assay (reference value: 2.5); format: functional
HaCaT [27] = assay: Cell cycle arrest in human HaCaT cells harboring […] p53 assessed as mitotic index at 10 uM measured after 48 hrs by Hoechst staining based fluorescence assay (reference value: 2.6); format: functional
Caco-2 [28] = assay: Cell cycle arrest in human Caco2 cells assessed as mitotic index at 25 uM measured after 48 hrs by Hoechst staining based fluorescence assay (reference value: 3.6); format: functional
Caco-2 [29] = assay: Cell cycle arrest in human Caco2 cells assessed as accumulation at S phase at 25 uM measured after 48 hrs by Hoechst/BrdU staining based fluorescence assay (reference value: […]); format: functional
HCT-116 [30] = assay: Cell cycle arrest in human HCT116 cells harboring wild-type p53 assessed as accumulation at S phase at 25 uM measured after 48 hrs by Hoechst/BrdU staining based fluorescence assay (reference value: 68.4%); format: functional
PC-3 [31] = assay: Cell cycle arrest in human PC3 cells harboring p53 mutant assessed as accumulation at S phase at 25 uM measured after 48 hrs by Hoechst/BrdU staining based fluorescence assay (reference value: 40.8%); format: functional
NCI-H727 = assay: Cell cycle arrest in human NCI-H727 cells harboring p53 mutant assessed as accumulation at S phase at 25 uM measured after 48 hrs by Hoechst/BrdU staining based fluorescence assay (reference value: 40.3%); format: functional
HaCaT [32] = assay: Cell cycle arrest in human HaCaT cells harboring […] p53 assessed as mitotic index at 25 uM measured after 48 hrs by Hoechst staining based fluorescence assay (reference value: 2.6); format: functional
HaCaT [33] = assay: Cell cycle arrest in human HaCaT cells harboring […] p53 assessed as accumulation at S phase at 25 uM measured after 48 hrs by Hoechst/BrdU staining based fluorescence assay (reference value: 52.3%); format: functional
HCT-116 [34] = assay: Cell cycle arrest in human HCT116 cells assessed as accumulation at G1/S phase by Hoechst staining based fluorescence assay; format: functional
HaCaT [35] = assay: Cell cycle arrest in human HaCaT cells assessed as accumulation at M phase by Hoechst staining based fluorescence assay; format: functional
MCF7 [36] = assay: Induction of apoptosis in human MCF7 cells harboring wild-type p53 assessed as upregulation of p21 measured after 48 hrs by Hoechst staining based fluorescence assay; format: functional, cell-based
MDA-MB-231 [37] = assay: Induction of apoptosis in human MDA-MB-231 cells harboring p53 mutant assessed as upregulation of cyclinB1 after 18 hrs by Hoechst staining based assay; format: functional, cell-based

Row | Structure (SMILES) | viability at 50 µM (Huh-7 [1]) [%] | viability at 50 µM (MDA-MB-231 [2]) [%] | viability at 50 µM (HCT-116 [3]) [%] | viability at 50 µM (PC-3 [4]) [%] | viability at 50 µM (HaCaT [5]) [%] | viability at 48 h, 50 µM [6] [%] | IC50 (Huh-7 [7]) [µM] | IC50 (Caco-2 [8]) [µM] | IC50 (MDA-MB-231 [9]) [µM] | IC50 (PC-3 [10]) [µM] | IC50 (HaCaT [11]) [µM] | IC50 (MCF7 [12]) [µM] | Ratio IC50 [13] | Ratio IC50 [14] | Activity (PC-3 [15]) | Activity (MDA-MB-231 [16]) | Activity (MCF7 [17]) | Activity (MCF7 [18]) | Activity (HCT-116 [19]) | Activity_index (Huh-7 [20]) | other results
1 | COc1cc(OC)c(C(=O)/C=C/c2ccc(F)cc2)c(OC)c1 | 8 | 12 | 1 | 26 | 21 | 78 | 14.6 | 5.5 | 10.7 | 5.5 | 7.6 | 7.7 | >8.1 | >9.1 | Active | Active | Active | Active | Active | 4.7 | Activity (Huh-7 [21]): 44%; Activity_index (Caco-2 [22]): 32; Activity (Caco-2 [23]): 39%; Activity_index (HCT-116 [24]): 1.3; Activity (HCT-116 [25]): 23%; Activity_index (PC-3 [26]): 14.6; Activity_index (HaCaT [27]): 10.7; Activity_index (Caco-2 [28]): 4.2; Activity (Caco-2 [29]): 13%; Activity (HCT-116 [30]): 0.7%; Activity (PC-3 [31]): 0.4%; Activity (NCI-H727): 4.5%; Activity_index (HaCaT [32]): 0; Activity (HaCaT [33]): 0.4%; Activity (HCT-116 [34]): Active; Activity (HaCaT [35]): Active; Activity (MCF7 [36]): Active; Activity (MDA-MB-231 [37]): Active
2 | COc1cc(OC)c(C(=O)/C=C/c2ccc(Br)cc2)c(OC)c1 | 3 | 6 | 0 | 10 | 6 | 57 | 13.9 | 6.8 | 11.1 | 7.1 | 9 | 9.5 | >8.1 | >7 | Active | Active | Active | Active | Active | 10.4 | Activity (Huh-7 [21]): 46%; Activity_index (Caco-2 [22]): 30.7; Activity (Caco-2 [23]): 36%; Activity_index (HCT-116 [24]): 2.8; Activity (HCT-116 [25]): 68%; Activity_index (PC-3 [26]): 2.5; Activity_index (HaCaT [27]): 19; Activity_index (Caco-2 [28]): 1.4; Activity (Caco-2 [29]): 1.9%; Activity (HCT-116 [30]): 68%; Activity (PC-3 [31]): 0.4%; Activity (NCI-H727): 6%; Activity_index (HaCaT [32]): 0; Activity (HaCaT [33]): 0.3%; Activity (HCT-116 [34]): Active; Activity (HaCaT [35]): Active; Activity (MCF7 [36]): Active; Activity (MDA-MB-231 [37]): Active
3 | COc1cccc(/C=C/C(=O)c2c(OC)cc(OC)cc2OC)c1 | 3 | 4 | 0 | 19 | 18 | 66 | 8.9 | 3.9 | 8.7 | 3.1 | 5.3 | 9.4 | >11.6 | >16.1 | Active | Active | Active | Active | Active | 12.3 | Activity (Huh-7 [21]): 40%; Activity_index (Caco-2 [22]): 36.8; Activity (Caco-2 [23]): 31%; Activity_index (HCT-116 [24]): 4.5; Activity (HCT-116 [25]): 20%; Activity_index (PC-3 [26]): 27.6; Activity_index (HaCaT [27]): 17.5; Activity_index (Caco-2 [28]): 4.8; Activity (Caco-2 [29]): 6%; Activity (HCT-116 [30]): 0.6%; Activity (PC-3 [31]): 0.9%; Activity (NCI-H727): 5.1%; Activity_index (HaCaT [32]): 0.1; Activity (HaCaT [33]): 0%; Activity (HCT-116 [34]): Active; Activity (HaCaT [35]): Active; Activity (MCF7 [36]): Active; Activity (MDA-MB-231 [37]): Active
